Reference: patent publication US9302999B2, “Substituted triazoles as herbicides” (E. I. DU PONT DE NEMOURS AND COMPANY, priority 2012, dated 2016)
Like-named read-outs stand apart in the source and are kept apart here.

Assays:
Assay type in all cases: in vivo
[1] = test system: johnsongrass (Sorghum halepense); test: Test C pre-/postemergence: johnsongrass
Outline: (§1)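 Preemergence on seeds in loam/sand, postemergence on 2–18 cm (1–4-leaf) plants in peat-based medium; compounds in non-phytotoxic solvent with surfactant. After 13–15 days in greenhouse, visual rating versus controls, 0 (no effect) to 100 (complete control).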

[2] = test system: chickweed (common chickweed, Stellaria media); test: Test C postemergence: chickweed
Outline: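 Visual 0–100 injury score vs untreated controls (0 none, 100 complete control), taken 13–15 d after treatment. Postemergence spray on potted plants, 2–18 cm, 1–4 leaves; greenhouse.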

[3] = test system: blackgrass (Alopecurus myosuroides); test: Test C pre-/postemergence: blackgrass
Outline: as §1

[4] = test system: barnyardgrass (Echinochloa crus-galli); test: Test A pre-/postemergence: barnyardgrass; conditions: for pest or weed control at 125 g/ha / pest or weed control at 500 g/ha: Echinochloa crus-galli, 240 h
Outline: (§2)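 Visual 0–100 injury ratings (0 no effect, 100 complete control) taken about ten days after treatment, relative to untreated controls. Preemergence treatment was a directed soil spray; postemergence plants were 2–10 cm tall at one- to two-leaf stage. Soil: loam/sand blend.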

[5] = test system: pigweed (Amaranthus retroflexus); test: Test C pre-/postemergence: pigweed
Outline: as §1

corn (Zea mays) = test: Test A pre-/postemergence: corn
Outline: as §2

wild oat (Avena fatua) = test: Test C pre-/postemergence: wild oat
Outline: as §1

[6] = test system: velvetleaf (Abutilon theophrasti); test: Test A pre-/postemergence: velvetleaf; conditions: for pest or weed control at 125 g/ha / pest or weed control at 500 g/ha: Abutilon theophrasti, 240 h
Outline: as §2

rice (Oryza sativa) = test: Test B flooded paddy: rice; conditions: Flood, applied to paddy water at 2-leaf stage, visually evaluated after 13 to 15 days
Outline: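 Visual ratings on a 0–100 scale, where 0 means no effect and 100 means complete control, were assigned by comparison with controls 13 to 15 days after treatment. Compounds went into paddy water over 2-leaf plants flooded to 3 cm.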

[7] = test system: winter wheat (Triticum aestivum); test: Test C pre-/postemergence: winter wheat
Outline: as §1

[8] = Postemergence, 31 g ai/ha, scale 0 to 100 (0 no effect, 100 complete control)
[9] = Postemergence, 62 g ai/ha, scale 0 to 100 (0 no effect, 100 complete control)
[10] = Postemergence, 125 g ai/ha, scale 0 to 100, 0 no effect, 100 complete control
[11] = Postemergence, 250 g ai/ha, scale 0 to 100 (0 no effect, 100 complete control)
[12] = Preemergence, 31 g ai/ha, scale 0 (no effect) to 100 (complete control)
[13] = Preemergence, 62 g ai/ha, scale of 0 to 100, 0 is no effect, 100 is complete control
[14] = Preemergence, 125 g ai/ha, scale 0 to 100, 0 no effect, 100 complete control
[15] = Preemergence, 250 g ai/ha, scale 0 to 100, 0 no effect, 100 complete control
[16] = 31 g ai/ha, scale 0 to 100 (0 no effect, 100 complete control)
[17] = 62 g ai/ha, scale 0 to 100 (0 no effect, 100 complete control)
[18] = 125 g ai/ha, scale 0 to 100, 0 no effect, 100 complete control
[19] = Postemergence, 250 g ai/ha, scale 0 to 100
[20] = Postemergence, 125 g ai/ha, 0 to 100 scale, 0 is no effect, 100 is complete control
[21] = Postemergence, 500 g ai/ha, 0 to 100 scale, 0 is no effect, 100 is complete control
[22] = Preemergence, 125 g ai/ha, 0 to 100 scale where 0 is no effect and 100 is complete control
[23] = Preemergence, 500 g ai/ha, 0 to 100 scale (0 no effect, 100 complete control)
[24] = Preemergence, 62 g ai/ha, scale 0 to 100, 0 no effect, 100 complete control

SMILES: CCOc1nn(-c2ccc(Cl)cc2)nc1Cc1ccnc(C(F)(F)F)c1 [Compound 188]
- Plant response rating, Johnsongrass [1, 8]: 45
- Plant response rating, Johnsongrass [1, 9]: 75
- Plant response rating, Johnsongrass [1, 10]: 95
- Plant response rating, Johnsongrass [1, 11]: 98
- Plant response rating, Johnsongrass [1, 12]: 55
- Plant response rating, Johnsongrass [1, 13]: 85
- Plant response rating, Johnsongrass [1, 14]: 95
- Plant response rating, Johnsongrass [1, 15]: 98
- Plant response rating, Chickweed [2, 16]: 80
- Plant response rating, Chickweed [2, 17]: 90
- Plant response rating, Chickweed [2, 18]: 90
- Plant response rating, Chickweed ([2]; 250 g ai/ha, scale 0 to 100): 95
- Plant response rating, Blackgrass [3, 8]: 55
- Plant response rating, Blackgrass [3, 9]: 55
- Plant response rating, Blackgrass [3, 10]: 85
- Plant response rating, Blackgrass [3, 19]: 90
- Plant response rating, Blackgrass [3, 12]: 80
- Plant response rating, Blackgrass [3, 13]: 100
- Plant response rating, Blackgrass [3, 14]: 100
- Plant response rating, Blackgrass [3, 15]: 100
- Plant response rating, Barnyardgrass [4, 20]: 90
- Barnyardgrass plant response rating [4, 21]: 90
- Plant response rating, Barnyardgrass [4, 22]: 90
- Plant response rating, Barnyardgrass [4, 23]: 100
- Plant response rating, Pigweed [5, 8]: 95
- Plant response rating, Pigweed [5, 9]: 95
- Plant response rating, Pigweed [5, 10]: 98
- Plant response rating, Pigweed [5, 11]: 100
- Plant response rating, Pigweed [5, 12]: 100
- Plant response rating, Pigweed [5, 13]: 100
- Plant response rating, Pigweed [5, 14]: 100
- Plant response rating, Pigweed [5, 15]: 100
- Plant response rating, Corn (corn (Zea mays); [20]): 40
- Corn plant response rating (corn (Zea mays); [21]): 50
- Plant response rating, Corn (corn (Zea mays); [22]): 10
- Plant response rating, Corn (corn (Zea mays); [23]): 20
- Plant response rating, Oat, Wild (wild oat (Avena fatua); [8]): 45
- Plant response rating, Oat, Wild (wild oat (Avena fatua); [9]): 60
- Plant response rating, Oat, Wild (wild oat (Avena fatua); [10]): 60
- Plant response rating, Oat, Wild (wild oat (Avena fatua); [11]): 90
- Plant response rating, Velvetleaf [6, 20]: 70
- Velvetleaf plant response rating [6, 21]: 90
- Plant response rating, Velvetleaf [6, 22]: 40
- Plant response rating, Velvetleaf [6, 23]: 90
- Plant response rating, Rice (0 to 100 scale, 0 is no effect, 100 is complete control) (rice (Oryza sativa); 125 g ai/ha): 50
- Plant response rating, Wheat [7, 8]: 20
- Plant response rating, Wheat [7, 9]: 30
- Plant response rating, Wheat [7, 10]: 45
- Plant response rating, Wheat [7, 11]: 50
- Plant response rating, Wheat [7, 12]: 30
- Plant response rating, Wheat [7, 13]: 30
- Plant response rating, Wheat [7, 14]: 35
- Plant response rating, Wheat [7, 15]: 40

SMILES: CCOc1nn(-c2ccc(F)cc2)nc1Cc1ccnc(C(F)(F)F)c1 [Compound 196, 4-[[5-ethoxy-2-(4-fluorophenyl)-2H-1,2,3-triazol-4-yl]methyl]-2-(trifluoromethyl)pyridine]
- Plant response rating, Johnsongrass [1, 8]: 80
- Plant response rating, Johnsongrass [1, 9]: 90
- Plant response rating, Johnsongrass [1, 10]: 90
- Plant response rating, Johnsongrass [1, 11]: 95
- Plant response rating, Johnsongrass [1, 12]: 98
- Plant response rating, Johnsongrass [1, 24]: 100
- Plant response rating, Johnsongrass [1, 15]: 100
- Plant response rating, Chickweed [2, 16]: 98
- Plant response rating, Chickweed [2, 17]: 98
- Plant response rating, Chickweed [2, 18]: 100
- Plant response rating, Chickweed ([2]; 250 g ai/ha, scale 0 to 100): 100
- Plant response rating, Blackgrass [3, 8]: 70
- Plant response rating, Blackgrass [3, 9]: 80
- Plant response rating, Blackgrass [3, 10]: 80
- Plant response rating, Blackgrass [3, 19]: 80
- Plant response rating, Blackgrass [3, 12]: 90
- Plant response rating, Blackgrass [3, 24]: 90
- Plant response rating, Blackgrass [3, 14]: 90
- Plant response rating, Blackgrass [3, 15]: 90
- pest or weed control at 125 g/ha ([4]; post-emergence, Postemergence, 125 g ai/ha, 0 to 100 scale, 0 is no effect, 100 is complete control, read-out: Plant response rating, Barnyardgrass): 80%
- pest or weed control at 500 g/ha ([4]; post-emergence, Postemergence, 500 g ai/ha, 0 to 100 scale, 0 is no effect, 100 is complete control, read-out: Barnyardgrass plant response rating): 90%
- pest or weed control at 125 g/ha ([4]; pre-emergence, Preemergence, 125 g ai/ha, 0 to 100 scale where 0 is no effect and 100 is complete control, read-out: Plant response rating, Barnyardgrass): 100%
- pest or weed control at 500 g/ha ([4]; pre-emergence, Preemergence, 500 g ai/ha, 0 to 100 scale (0 no effect, 100 complete control), read-out: Plant response rating, Barnyardgrass): 100%
- Plant response rating, Pigweed [5, 8]: 98
- Plant response rating, Pigweed [5, 9]: 98
- Plant response rating, Pigweed [5, 10]: 98
- Plant response rating, Pigweed [5, 11]: 98
- Plant response rating, Pigweed [5, 12]: 95
- Plant response rating, Pigweed [5, 24]: 98
- Plant response rating, Pigweed [5, 14]: 98
- Plant response rating, Pigweed [5, 15]: 98
- Corn plant response rating (crop injury, 0 = no effect, 100 = complete kill) at 125 g/ha (corn (Zea mays); Zea mays, post-emergence, 240 h, Postemergence, 125 g ai/ha, 0 to 100 scale, 0 is no effect, 100 is complete control): 70%
- plant injury at 500 g/ha (corn (Zea mays); Zea mays, post-emergence, 240 h, Postemergence, 500 g ai/ha, 0 to 100 scale, 0 is no effect, 100 is complete control, read-out: Corn plant response rating): 80%
- Corn plant response rating (crop injury, 0 = no effect, 100 = complete kill) at 125 g/ha (corn (Zea mays); Zea mays, pre-emergence, 240 h, Preemergence, 125 g ai/ha, 0 to 100 scale where 0 is no effect and 100 is complete control): 30%
- Corn plant response rating (crop injury, 0 = no effect, 100 = complete kill) at 500 g/ha (corn (Zea mays); Zea mays, pre-emergence, 240 h, Preemergence, 500 g ai/ha, 0 to 100 scale (0 no effect, 100 complete control)): 50%
- Plant response rating, Oat, Wild (wild oat (Avena fatua); [8]): 55
- Plant response rating, Oat, Wild (wild oat (Avena fatua); [9]): 85
- Plant response rating, Oat, Wild (wild oat (Avena fatua); [10]): 85
- Plant response rating, Oat, Wild (wild oat (Avena fatua); [11]): 90
- Plant response rating, Oat, Wild (wild oat (Avena fatua); [12]): 80
- Plant response rating, Oat, Wild (wild oat (Avena fatua); [24]): 90
- Plant response rating, Oat, Wild (wild oat (Avena fatua); [14]): 90
- Plant response rating, Oat, Wild (wild oat (Avena fatua); [15]): 90
- pest or weed control at 125 g/ha ([6]; post-emergence, Postemergence, 125 g ai/ha, 0 to 100 scale, 0 is no effect, 100 is complete control, read-out: Plant response rating, Velvetleaf): 100%
- pest or weed control at 500 g/ha ([6]; post-emergence, Postemergence, 500 g ai/ha, 0 to 100 scale, 0 is no effect, 100 is complete control, read-out: Velvetleaf plant response rating): 100%
- pest or weed control at 125 g/ha ([6]; pre-emergence, Preemergence, 125 g ai/ha, 0 to 100 scale where 0 is no effect and 100 is complete control, read-out: Plant response rating, Velvetleaf): 80%
- pest or weed control at 500 g/ha ([6]; pre-emergence, Preemergence, 500 g ai/ha, 0 to 100 scale (0 no effect, 100 complete control), read-out: Plant response rating, Velvetleaf): 100%
- Plant response rating, Rice (0 to 100 scale, 0 is no effect, 100 is complete control) (rice (Oryza sativa); 250 g ai/ha): 70
- Plant response rating, Wheat [7, 8]: 15
- Plant response rating, Wheat [7, 9]: 35
- Plant response rating, Wheat [7, 10]: 45
- Plant response rating, Wheat [7, 11]: 45
- Plant response rating, Wheat [7, 12]: 0
- Plant response rating, Wheat [7, 24]: 15
- Plant response rating, Wheat [7, 14]: 40
- Plant response rating, Wheat [7, 15]: 50
